For assay [1], the system named is HAP1 MTAP-intact cell line. Put plainly: SDMA in-cell western assay, HAP1 MTAP-intact. It counts as cell-based. The following applies: Homo sapiens, HAP1, SDMA in-cell western, HAP1 MTAP-intact; read-out: MTAP HAP1 intact IC50. The method in brief:
(§1)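 Readout: in-cell western detection of SDMA. Cells: HAP1 expressing endogenous MTAP and an MTAP-null HAP1 counterpart. Output: IC50.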

Assay [2] concerns the target T1, PRMT5 (Homo sapiens, UniProt O14744).
T1 construct: purchased Viva (custom protein)
Kind of assay: PRMT5 biochemical IC50 assay with no cofactor. The following applies: PRMT5, no cofactor; read-out: No Cofactor/ rel IC50. The source says: Table 1 indicates IC50 values (μM) against PRMT5 for exemplary compounds in the presence of SAM as cofactor, with no cofactor, and with MTA as cofactor, respectively (columns 4-6). […] Ki values can be calculated from the IC50 values as described in the Examples section. As detailed in the Examples section, for the assay performed in the presence of SAM, IC50=Ki×1.5 (Ki=IC50/1.5).

Assay [3] concerns the target T1, PRMT5. Kind of assay: PRMT5 biochemical IC50 assay with MTA as cofactor. Particulars: PRMT5, MTA as cofactor; read-out: MTA IC50.
Assay [4] has as its system HAP1 MTAP-deleted cell line. Kind of assay: SDMA in-cell western assay, HAP1 MTAP-deleted. Type of assay: cell-based. The following applies: for IC50: Homo sapiens, HAP1, SDMA in-cell western, HAP1 MTAP-deleted, read-out: HAP 1 MTAP deleted IC50; for MTAP intact/deleted ratio: IC50 ratio HAP1 MTAP-intact / HAP1 MTAP-deleted, SDMA in-cell western. The gist of the method:
as §1

The target of assay [5] is T1, PRMT5. Put plainly: PRMT5 biochemical IC50 assay with SAM as cofactor. Particulars: PRMT5, SAM as cofactor; read-out: SAM IC50.
The test system of assay [6] is HAP1 MTAP-deleted cell line. Put plainly: Viability assay, MTAP-deleted cell line. It counts as cell-based. Particulars: Homo sapiens, HAP1, viability, HAP1 MTAP-deleted cell line; read-out: HAP1 MTAP deleted viability. The text has this:
Table 1 additionally indicates IC50 values in a viability assay for the MTAP-deleted cell line (column 10), indicating the effect of treatment with compound on cell survival.

From patent US11999727B2 (Tango Therapeutics, Inc., priority 2020, dated 2024) come the findings set out here.

T1 sequence (O14744 whole entry): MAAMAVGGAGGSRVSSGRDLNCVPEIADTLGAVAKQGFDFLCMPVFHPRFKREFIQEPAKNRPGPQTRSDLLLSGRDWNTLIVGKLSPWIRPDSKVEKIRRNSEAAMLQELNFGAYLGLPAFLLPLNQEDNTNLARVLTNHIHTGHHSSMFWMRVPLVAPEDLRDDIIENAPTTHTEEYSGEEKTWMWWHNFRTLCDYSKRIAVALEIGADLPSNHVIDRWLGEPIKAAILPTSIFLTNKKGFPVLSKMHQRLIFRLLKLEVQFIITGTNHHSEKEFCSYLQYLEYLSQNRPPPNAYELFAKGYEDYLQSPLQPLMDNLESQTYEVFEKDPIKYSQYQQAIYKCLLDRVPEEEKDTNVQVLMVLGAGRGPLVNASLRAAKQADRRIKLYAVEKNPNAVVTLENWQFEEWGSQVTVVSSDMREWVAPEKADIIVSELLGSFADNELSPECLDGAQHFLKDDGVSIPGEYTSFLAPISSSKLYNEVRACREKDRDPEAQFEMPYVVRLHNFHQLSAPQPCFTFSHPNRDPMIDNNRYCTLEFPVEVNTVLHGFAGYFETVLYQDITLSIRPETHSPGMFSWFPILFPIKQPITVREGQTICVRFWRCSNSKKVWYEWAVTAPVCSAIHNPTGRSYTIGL
T1 sequence (Q9BQA1 whole entry partner): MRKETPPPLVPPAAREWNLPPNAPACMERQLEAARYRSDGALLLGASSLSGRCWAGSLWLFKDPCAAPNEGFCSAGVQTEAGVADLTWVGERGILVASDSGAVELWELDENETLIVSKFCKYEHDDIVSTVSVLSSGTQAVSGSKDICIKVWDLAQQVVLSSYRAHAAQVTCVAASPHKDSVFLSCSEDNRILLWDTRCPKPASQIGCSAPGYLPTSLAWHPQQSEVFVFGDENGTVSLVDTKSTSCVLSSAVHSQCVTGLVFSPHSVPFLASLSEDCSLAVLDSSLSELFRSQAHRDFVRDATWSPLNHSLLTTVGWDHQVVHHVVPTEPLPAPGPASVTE

For the compound `CCc1cc(NC(=O)C(=O)N2C[C@@H](C)CC[C@@H]2c2ccc3sc(C4CCCN4C)nc3c2)cnc1N` (stereo partly drawn) [Compound 1282, N-(6-amino-5-ethylpyridin-3-yl)-2-((2R,5S)-5-methyl-2-(2-(1-methylpyrrolidin-2-yl)benzo[d]thiazol-5-yl)piperidin-1-yl)-2-oxoacetamide], the IC50 in assay [1] is 0.1 to 1 µM; in assay [2], below 0.05 µM; in assay [3] it was below 0.05 µM; in assay [4] it was below 0.1 µM; in assay [5], 0.05 to 0.5 µM; in assay [6] it was below 1 µM. Further, in assay [4], the “MTAP intact/deleted ratio” value is “A (an IC50 ratio greater than or equal to 10 fold)”.
`CCc1cc(NC(=O)C(=O)N2C[C@@H](C)CC[C@@H]2c2ccc3sc(C4CC5(C4)CN(C)C5)nc3c2)cnc1N` [Compound 1283, N-(6-amino-5-ethylpyridin-3-yl)-2-((2R,5S)-5-methyl-2-(2-(2-methyl-2-azaspiro[3.3]heptan-6-yl)benzo[d]thiazol-5-yl)piperidin-1-yl)-2-oxoacetamide]: the IC50 in assay [1] is below 0.1 µM; in assay [2], below 0.05 µM; in assay [3], below 0.05 µM; in assay [4], below 0.1 µM; in assay [5] it was below 0.05 µM; in assay [6] it was below 1 µM. Besides, the “MTAP intact/deleted ratio” value in assay [4] is “A (an IC50 ratio greater than or equal to 10 fold)”.
With `COc1ncc(NC(=O)C(=O)N2C[C@@H](C)CC[C@@H]2c2ccc3sc(CCN4CCCC4)nc3c2)cc1C(N)=O` [Compound 1288, 2-methoxy-5-(2-((2R,53)-5-methyl-2-(2-(2-(pyrrolidin-1-yl)ethyl)benzo[d]thiazol-5-yl)piperidin-1-yl)-2-oxoacetamido)nicotinamide], the IC50 in assay [1] is 0.1 to 1 µM; in assay [2], 0.05 to 0.5 µM; in assay [3], below 0.05 µM; in assay [4] it was below 0.1 µM; in assay [5], 0.05 to 0.5 µM; in assay [6], below 1 µM. Moreover, the “MTAP intact/deleted ratio” value in assay [4] is given as “A (an IC50 ratio greater than or equal to 10 fold)”.
For the compound `CCc1cc(NC(=O)C(=O)N2C[C@@H](C)CC[C@@H]2c2cccc(OC[C@@H](C)N(C)C)c2)cnc1N` [Compound 1290, N-(6-amino-5-ethylpyridin-3-yl)-2-((2R,5S)-2-(3-(2-(dimethylamino)propoxy)phenyl)-5-methylpiperidin-1-yl)-2-oxoacetamide], the IC50 is 0.1 to 1 µM in assay [1]; below 0.05 µM in assay [2]; below 0.05 µM in assay [3]; below 0.1 µM in assay [4]; 0.05 to 0.5 µM in assay [5]; below 1 µM in assay [6]. The “MTAP intact/deleted ratio” value in assay [4] is given as “A (an IC50 ratio greater than or equal to 10 fold)”.
As to `CCc1cc(NC(=O)C(=O)N2C[C@@H](C)CC[C@@H]2c2ccc(OCCN(C)C)cc2)cnc1N` [Compound 1292, N-(6-amino-5-ethylpyridin-3-yl)-2-((2R,5S)-2-(4-(2-(dimethylamino)ethoxy)phenyl)-5-methylpiperidin-1-yl)-2-oxoacetamide], the IC50 was 0.1 to 1 µM in assay [1]; below 0.05 µM in assay [2]; below 0.05 µM in assay [3]; below 0.1 µM in assay [4]; 0.05 to 0.5 µM in assay [5]; below 1 µM in assay [6]. Also, the “MTAP intact/deleted ratio” value in assay [4] is listed as “A (an IC50 ratio greater than or equal to 10 fold)”.
As for `CCc1cc(NC(=O)C(=O)N2C[C@@H](C)CC[C@@H]2c2ccc(N3CCN(C)C[C@H]3C)nc2)cnc1N` [Compound 1294, N-(6-amino-5-ethyl-3-pyridyl)-2-[(2R,5S)-2-[6-[(2R)-2,4-dimethylpiperazin-1-yl]-3-pyridyl]-5-methyl-1-piperidyl]-2-oxo-acetamide], the IC50 was 0.1 to 1 µM in assay [1]; below 0.05 µM in assay [2]; below 0.05 µM in assay [3]; below 0.1 µM in assay [4]; 0.05 to 0.5 µM in assay [5]; below 1 µM in assay [6]. In addition, in assay [4], the “MTAP intact/deleted ratio” value is given as “A (an IC50 ratio greater than or equal to 10 fold)”.
Regarding `Cc1cc(NC(=O)C(=O)N2C[C@@H](C)CC[C@@H]2c2ccc3sc(CCN4CCCC4)nc3c2)cnc1N` [Compound 1296, N-(6-amino-5-methylpyridin-3-yl)-2-((2R,5S)-5-methyl-2-(2-(2-(pyrrolidin-1-yl)ethyl)benzo[d]thiazol-5-yl)piperidin-1-yl)-2-oxoacetamide], the IC50 is below 0.1 µM in assay [1]; below 0.05 µM in assay [2]; below 0.05 µM in assay [3]; below 0.1 µM in assay [4]; below 0.05 µM in assay [5]; below 1 µM in assay [6]. Moreover, in assay [4], the “MTAP intact/deleted ratio” value is listed as “A (an IC50 ratio greater than or equal to 10 fold)”.
`CCc1cc(NC(=O)C(=O)N2C[C@@H](C)CC[C@@H]2c2ccc3sc(C45CCN(CC4)C5)nc3c2)cnc1N` [Compound 1298, 2-((2R,5S)-2-(2-(1-azabicyclo[2.2.1]heptan-4-yl)benzo[d]thiazol-5-yl)-5-methylpiperidin-1-yl)-N-(6-amino-5-ethylpyridin-3-yl)-2-oxoacetamide]: the IC50 in assay [1] is below 0.1 µM; in assay [2], below 0.05 µM; in assay [3], below 0.05 µM; in assay [4], below 0.1 µM; in assay [5], 0.05 to 0.5 µM; in assay [6], below 1 µM. For the same compound, the “MTAP intact/deleted ratio” value in assay [4] is on record as “B (an IC50 ratio greater than or equal to 3 fold but lower than 10 fold)”.
Turning to `Cc1ncc(NC(=O)C(=O)N2C[C@@H](C)CC[C@@H]2c2ccc3sc(C4CCN(C)CC4)nc3c2)cc1C(F)(F)F` [Compound 1300, 2-((2R,5)-5-methyl-2-(2-(1-methylpiperidin-4-yl)benzo[d]thiazol-5-yl)piperidin-1-yl)-N-(6-methyl-5-(trifluoromethyl)pyridin-3-yl)-2-oxoacetamide], the IC50 in assay [1] is 0.1 to 1 µM; in assay [2], below 0.05 µM; in assay [3], below 0.05 µM; in assay [4] it was below 0.1 µM; in assay [5], 0.05 to 0.5 µM; in assay [6] it was below 1 µM. Besides, the “MTAP intact/deleted ratio” value in assay [4] is “A (an IC50 ratio greater than or equal to 10 fold)”.
Consider `Cc1ncc(NC(=O)C(=O)N2C[C@@H](C)CC[C@@H]2c2ccc3sc(C4CCN(C)CC4)nc3c2)cc1C(F)F` [Compound 1301], for which the IC50 in assay [1] was below 0.1 µM; in assay [2], below 0.05 µM; in assay [3], below 0.05 µM; in assay [4], below 0.1 µM; in assay [5], below 0.05 µM; in assay [6], below 1 µM. The “MTAP intact/deleted ratio” value in assay [4] was “A (an IC50 ratio greater than or equal to 10 fold)”.
As to `CCc1cc(NC(=O)C(=O)N2C[C@@H](C)CC[C@@H]2c2ccc3sc(CN(C)C(C)C)nc3c2)cnc1N` [Compound 1303, N-(6-amino-5-ethylpyridin-3-yl)-2-((2R,5S)-2-(2-((isopropyl(methyl)amino)methyl)benzo[d]thiazol-5-yl)-5-methylpiperidin-1-yl)-2-oxoacetamide], the IC50 in assay [1] was 0.1 to 1 µM; in assay [2], below 0.05 µM; in assay [3] it was below 0.05 µM; in assay [4], below 0.1 µM; in assay [5], 0.05 to 0.5 µM; in assay [6], below 1 µM. Also, in assay [4], the “MTAP intact/deleted ratio” value was “A (an IC50 ratio greater than or equal to 10 fold)”.
On to `CCc1cc(NC(=O)C(=O)N2C[C@@H](C)CC[C@@H]2c2ccc3sc(C4CCN(CC(F)F)CC4)nc3c2)cnc1N` [Compound 1304, N-(6-amino-5-ethylpyridin-3-yl)-2-((2R,5S)-2-(2-(1-(2,2-difluoroethyl)piperidin-4-yl)benzo[d]thiazol-5-yl)-5-methylpiperidin-1-yl)-2-oxoacetamide], for which the IC50 in assay [1] is 0.1 to 1 µM; in assay [2], below 0.05 µM; in assay [3], below 0.05 µM; in assay [4], below 0.1 µM; in assay [5], below 0.05 µM; in assay [6] it was below 1 µM. The “MTAP intact/deleted ratio” value in assay [4] is recorded as “A (an IC50 ratio greater than or equal to 10 fold)”.
Consider `CCc1cc(NC(=O)C(=O)N2C[C@@H](C)CC[C@@H]2c2ccc(NC3CCN(C)CC3)nc2)cnc1N` [Compound 1306, N-(6-Amino-5-ethyl-3-pyridyl)-2-[(2R,5S)-5-methyl-2-[6-[(1-methyl-4-piperidyl)amino]-3-pyridyl]-1-piperidyl]-2-oxo-acetamide], for which the IC50 in assay [1] was 0.1 to 1 µM; in assay [2] it was below 0.05 µM; in assay [3], below 0.05 µM; in assay [4], below 0.1 µM; in assay [5], 0.05 to 0.5 µM; in assay [6], below 1 µM. Further, in assay [4], the “MTAP intact/deleted ratio” value is on record as “A (an IC50 ratio greater than or equal to 10 fold)”.
